Measured values reported in patent US11021444B2, “Antiviral compounds” (priority 2013, dated 2021).
Where two headings read alike, the source gives them in different places.

Assays:
[1] = tested on: Respiratory Syncytial Virus (RSV) long strain; assay: microbe, parasite or virus in culture; type: cell-based; settings: human respiratory syncytial virus, Tables A and B list compounds by EC50 band
How it was run: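 CPE-reduction format: viability measured colorimetrically with CCK-8 (450 nm, 630 nm reference) after 3-4 h, following 5-day infection at 37 °C, 5% CO2. Cells were HEp-2; inoculum 100 TCID50/well; duplicate 9-point 1/3 series starting at 100 μM or 1 μM.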

[2] = Cytotoxicity Determination (CCK-8, without addition of virus); type: cell-based; settings: human, 50% cytotoxicity concentration (CC50)
How it was run: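 Cytotoxicity was measured by CCK-8 after 3-4 hours at 37 °C, following 5 days of uninfected exposure at 37 °C and 5% CO2. Compounds ran as duplicate 7-point 1/2 dilutions starting at 100 μM, with 1% final DMSO. HEp-2 cells had been plated at 1,500/well the day before.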

recombinant RSV complex = recombinant RSV complex (Human respiratory syncytial virus A, UniProt P28887); assay: RSV Polymerase Inhibition Assay; type: biochemical
Chain of recombinant RSV complex (P28887 whole entry): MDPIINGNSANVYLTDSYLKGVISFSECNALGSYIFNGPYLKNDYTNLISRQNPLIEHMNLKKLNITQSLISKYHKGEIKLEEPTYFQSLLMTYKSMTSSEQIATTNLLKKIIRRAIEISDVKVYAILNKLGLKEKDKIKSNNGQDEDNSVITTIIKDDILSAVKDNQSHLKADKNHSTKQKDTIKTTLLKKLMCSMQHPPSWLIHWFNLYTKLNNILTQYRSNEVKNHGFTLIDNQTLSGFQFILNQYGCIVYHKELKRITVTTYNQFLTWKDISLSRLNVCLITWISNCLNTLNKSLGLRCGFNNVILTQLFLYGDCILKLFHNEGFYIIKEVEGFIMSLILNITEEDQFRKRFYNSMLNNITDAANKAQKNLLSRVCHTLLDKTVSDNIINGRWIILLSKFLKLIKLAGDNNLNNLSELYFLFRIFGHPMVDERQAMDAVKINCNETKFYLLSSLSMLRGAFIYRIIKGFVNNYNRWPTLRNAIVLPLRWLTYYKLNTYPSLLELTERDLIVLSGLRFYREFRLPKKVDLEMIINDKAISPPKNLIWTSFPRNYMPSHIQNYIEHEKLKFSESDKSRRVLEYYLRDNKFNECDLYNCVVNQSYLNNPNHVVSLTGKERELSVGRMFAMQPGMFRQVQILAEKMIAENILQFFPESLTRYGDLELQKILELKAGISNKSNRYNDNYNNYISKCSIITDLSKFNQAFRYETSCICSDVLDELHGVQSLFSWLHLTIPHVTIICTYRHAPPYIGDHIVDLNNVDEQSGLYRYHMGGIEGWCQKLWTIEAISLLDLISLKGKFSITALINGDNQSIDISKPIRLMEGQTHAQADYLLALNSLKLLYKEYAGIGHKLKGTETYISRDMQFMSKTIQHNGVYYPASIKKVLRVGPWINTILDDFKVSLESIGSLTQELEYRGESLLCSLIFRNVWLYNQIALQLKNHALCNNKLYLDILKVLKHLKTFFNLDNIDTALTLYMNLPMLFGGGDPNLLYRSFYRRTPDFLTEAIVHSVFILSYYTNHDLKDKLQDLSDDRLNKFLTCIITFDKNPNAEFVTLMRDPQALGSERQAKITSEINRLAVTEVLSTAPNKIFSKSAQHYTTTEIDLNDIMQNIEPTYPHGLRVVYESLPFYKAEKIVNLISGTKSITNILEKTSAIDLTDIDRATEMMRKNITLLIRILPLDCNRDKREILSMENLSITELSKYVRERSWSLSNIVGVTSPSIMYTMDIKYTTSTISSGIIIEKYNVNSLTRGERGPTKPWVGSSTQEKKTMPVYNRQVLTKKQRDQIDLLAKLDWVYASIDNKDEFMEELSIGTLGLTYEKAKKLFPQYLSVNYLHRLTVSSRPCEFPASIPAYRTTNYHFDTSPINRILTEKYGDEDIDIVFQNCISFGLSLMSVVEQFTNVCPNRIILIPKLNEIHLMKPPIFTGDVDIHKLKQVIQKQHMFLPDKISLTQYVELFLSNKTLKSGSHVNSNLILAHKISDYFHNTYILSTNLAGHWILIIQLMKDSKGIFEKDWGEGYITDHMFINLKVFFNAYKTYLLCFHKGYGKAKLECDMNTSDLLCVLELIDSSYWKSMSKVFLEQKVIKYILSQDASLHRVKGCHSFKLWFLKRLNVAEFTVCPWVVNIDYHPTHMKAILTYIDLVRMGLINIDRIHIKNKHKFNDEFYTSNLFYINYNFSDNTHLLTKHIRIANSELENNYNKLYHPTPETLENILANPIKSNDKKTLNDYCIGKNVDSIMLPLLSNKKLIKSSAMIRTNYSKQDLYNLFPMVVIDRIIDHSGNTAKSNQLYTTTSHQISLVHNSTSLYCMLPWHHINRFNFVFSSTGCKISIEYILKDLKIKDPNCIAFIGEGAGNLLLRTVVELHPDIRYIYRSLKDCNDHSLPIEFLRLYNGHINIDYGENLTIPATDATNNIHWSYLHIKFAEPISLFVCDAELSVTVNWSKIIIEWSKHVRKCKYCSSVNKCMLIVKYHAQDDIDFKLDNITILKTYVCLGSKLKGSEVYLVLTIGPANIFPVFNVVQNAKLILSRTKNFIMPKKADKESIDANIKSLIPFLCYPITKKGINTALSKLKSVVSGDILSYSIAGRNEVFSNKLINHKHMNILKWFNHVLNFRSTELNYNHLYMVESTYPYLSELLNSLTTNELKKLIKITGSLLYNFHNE
Chain of recombinant RSV complex (P03421 whole entry, further chain): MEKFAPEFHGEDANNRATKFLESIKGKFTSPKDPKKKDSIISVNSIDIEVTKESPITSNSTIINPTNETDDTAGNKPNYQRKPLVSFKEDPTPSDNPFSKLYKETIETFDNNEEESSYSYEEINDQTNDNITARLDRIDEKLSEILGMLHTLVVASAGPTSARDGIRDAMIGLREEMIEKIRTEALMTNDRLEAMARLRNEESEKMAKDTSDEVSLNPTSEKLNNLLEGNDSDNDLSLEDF
How it was run: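 Inhibition measured as reduced incorporation of radiolabel into RNA products, detected by scintillation counting. Reactions: recombinant RSV complex (10 nM), RNA oligonucleotides, Tris-HCl pH 7.5, 6 mM MgCl2, inhibitor titration, 2 h at 30 °C, EDTA stop.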

RSV replicon = assay: microbe, parasite or virus in culture; type: cell-based; settings: human respiratory syncytial virus, read-out: EC50, the concentration of the drug required for reducing RSV replicon RNA by 50%
Description: The Renilla Luciferase Assay System (Promega, Cat. #E2820) was used to measure anti-RSV replicon activity. […] Luminescence was recorded using a Perkin Elmer multilabel counter Victor3V. EC50, the concentration of the drug required for reducing RSV replicon RNA by 50% in relation to the untreated cell control value, was calculated from the plot of percentage reductions of the optical density (OD) value against the drug concentrations using the Microsoft Excel forecast function.

[3] = HEp-2, 120 h, read-out: 50% effective concentration (EC50), HEp-2 cells infected with RSV long strain, 5 days, CCK-8 readout
[4] = 120 h, read-out: 50% effective concentration (EC50), HEp-2 cells infected with RSV long strain, 5 days, CCK-8 readout

SMILES | EC50 [1, 3] [nM] | CC50 at 5 days [2] [nM] | IC50 (recombinant RSV complex) [nM] | EC50 (RSV replicon) [nM] | EC50 [1, 4] [nM]
COc1cc(C(=O)NCC(F)(c2ccc(OC)c(-c3ccc(F)c(Cl)c3)n2)C(F)(F)F)ccc1OC[C@@H](C)O (stereo partly drawn) [Compound 342] | < 1000 | 10000 to 100000 | < 1000 | < 1000 | 
COc1cc(C(=O)NCC(C)(O)c2cc(C(C)(C)N)cc(-c3ccc(F)cc3)n2)ccc1OC1CC1 (stereo not drawn) [Compound 574] | < 1000 | 10000 to 100000 | < 1000 | < 1000 | 
COc1cc(C(=O)NCC(O)(c2cc3c(c(-c4ccc(F)c(Cl)c4)n2)OCCC3)C2CC2)ccc1OCCO (stereo not drawn) [Compound 309] | < 1000 | 10000 to 100000 | < 1000 | < 1000 | 
COc1cc(C(=O)NCC(O)(CNC2CC2)c2ccc(OC)c(-c3ccc(F)c(Cl)c3)n2)ccc1OCCO (stereo not drawn) [Compound 189] | < 1000 | > 100000 | < 1000 | < 1000 | 
COc1cc(C(=O)NCC(O)(Cn2cncn2)c2ccc(OC)c(-c3ccc(F)c(Cl)c3)n2)ccc1OCCO (stereo not drawn) [Compound 194] | < 1000 | > 100000 | < 1000 | < 1000 | 
CNc1cc(-c2ccc(F)c(Cl)c2)nc(C(O)(CNC(=O)c2ccc(OC3CC3)c(OC)c2)C(F)(F)F)c1 (stereo not drawn) [Compound 448] | < 1000 | 10000 to 100000 | < 1000 | < 1000 | 
COc1cc(C(=O)NCC(O)(Cn2ccnn2)c2ccc(OC)c(-c3ccc(F)c(Cl)c3)n2)ccc1OCCO (stereo not drawn) [Compound 192] | < 1000 | > 100000 | < 1000 | < 1000 | 
CCC1(N)COc2c1cc(C(O)(CNC(=O)c1ccc(OCCO)c(OC)c1)C(F)(F)F)nc2-c1ccc(F)cc1 (stereo not drawn) [Compound 530] |  | 10000 to 100000 | < 1000 | < 1000 | < 1000
COc1cc(C(=O)NC[C@](O)(c2cc(C(C)(C)N)cc(-c3ccc(F)cc3)n2)C(F)(F)F)ccc1OC1CC1 [Compound 496] | < 1000 | 10000 to 100000 | < 1000 | < 1000 | 
COc1cc(C(=O)NCC(=O)c2cc3c(c(-c4ccc(F)c(Cl)c4)n2)OCC=C3)ccc1OCCF [Compound 302] | 1000 to 50000 | > 100000 | < 1000 | < 1000 | 
COc1cc(C(=O)NCC(O)(c2cc(C(C)(C)N)cc(-c3ccc(F)c(Cl)c3)n2)C(F)(F)F)ccc1OCS(N)(=O)=O (stereo not drawn) [Compound 637] | 1000 to 50000 | 10000 to 100000 | < 1000 | < 1000 | 
COc1cc(C(=O)NCC(C)(O)c2ccc(OC)c(-c3ccc(F)c(Cl)c3)n2)ccc1OCC(F)F (stereo not drawn) [Compound 372] | < 1000 | 10000 to 100000 | < 1000 | < 1000 | 
COc1cc(C(=O)NCC(O)(c2cc(C(C)(C)N)cc(-c3ccc(F)c(Cl)c3)n2)C(F)(F)F)ccc1O[C@H]1CCNC1=O (stereo partly drawn) [Compound 283] | < 1000 | 10000 to 100000 | < 1000 | < 1000 | 
COc1cc(C(=O)NC[C@](O)(c2cc(C(C)(C)N)cc(-c3ccc(C#N)cc3)n2)C(F)(F)F)ccc1OC[C@@H](C)O [Compound 624b] | < 1000 | > 100000 | < 1000 | < 1000 | 
COc1cc(C(=O)NCC(O)(Cn2nccn2)c2ccc(OC)c(-c3ccc(F)c(Cl)c3)n2)ccc1OCCO (stereo not drawn) [Compound 193] | < 1000 | 10000 to 100000 | < 1000 | < 1000 | 
COc1cc(C(=O)NC[C@](O)(c2cc(C(C)(C)N)cc(-c3ccc(F)cc3)n2)C(F)(F)F)ccc1OCC(N)=O [Compound 562] | < 1000 | > 100000 | < 1000 | < 1000 | 
COc1cc(C(=O)NCC(O)(c2cc([C@]3(C)CCN3)cc(-c3ccc(F)cc3)n2)C(F)(F)F)ccc1OCCO (stereo partly drawn) [Compound 650] |  | 10000 to 100000 | < 1000 | < 1000 | < 1000
COc1cc(C(=O)NCC(C)(O)c2cc3c(c(-c4ccc(F)c(Cl)c4)n2)OCC3(C)C)ccc1OCCO (racemic) [Compound 166] | < 1000 | 10000 to 100000 | < 1000 | < 1000 | 
COc1cc(C(=O)NCC(O)(c2cc(C(C)(N)CF)cc(-c3ccc(F)cc3)n2)C(F)(F)F)ccc1OCCO (single isomer, unassigned) [Compound 664] | < 1000 | 10000 to 100000 | < 1000 | < 1000 | 
COc1cc(C(=O)NCC(O)(c2cc3c(c(-c4ccc(F)cc4)n2)OCC3(C)N)C(F)(F)F)ccc1OC[C@@H](C)O (stereo partly drawn) [Compound 556] | < 1000 | 10000 to 100000 | < 1000 | < 1000 | 

SMILES | EC50 [1, 3] [nM] | CC50 at 5 days [2] [nM] | IC50 (recombinant RSV complex) [nM] | EC50 (RSV replicon) [nM] | EC50 [1, 4] [nM]
COc1cc(C(=O)NCC(C)(O)c2cccc(-c3csc4c(F)cccc34)n2)ccc1OCCO (stereo not drawn) [Compound 143] | < 1000 | 10000 to 100000 | < 1000 | < 1000 | 
CNC(C)(C)c1cc(-c2ccc(F)c(Cl)c2)nc(C(O)(CNC(=O)c2cc(OC)c3ncccc3c2)C(F)(F)F)c1 (stereo not drawn) [Compound 488] | < 1000 | 10000 to 100000 | < 1000 | < 1000 | 
COc1cc(C(=O)NCC(C)(O)c2cc(C(C)(C)C)cc(-c3ccc(F)c(Cl)c3)n2)ccc1OCCO (stereo not drawn) [Compound 467] | < 1000 | 10000 to 100000 | < 1000 | < 1000 | 
C=CC(O)(CNC(=O)c1ccc(OCCF)c(OC)c1)c1ccc(OC)c(-c2ccc(F)c(Cl)c2)n1 (stereo not drawn) [Compound 126] | < 1000 | 10000 to 100000 | < 1000 | < 1000 | 
COc1ccc(C(O)(CO)CNC(=O)c2ccc(OC3CCNC3=O)c(Cl)c2)nc1-c1ccc(F)c(Cl)c1 (stereo not drawn) [Compound 452] | < 1000 | 10000 to 100000 | < 1000 | < 1000 | 
COc1cc(C(=O)NCC(O)(Cn2cccn2)c2cc3c(c(-c4ccc(F)c(Cl)c4)n2)OCC3(C)C)ccc1OC1CCNC1=O (stereo not drawn) [Compound 218] | < 1000 | 10000 to 100000 | < 1000 | < 1000 | 
COc1cc(C(=O)NCC(O)(c2cc3c(c(-c4ccc(Cl)cc4)n2)OCC3(C)N)C(F)(F)F)ccc1CO[C@@H](C)O (stereo partly drawn) [Compound 646] | < 1000 | 10000 to 100000 | < 1000 | < 1000 | 
COc1cc(C(=O)NCC(O)(CN2CCC2)c2ccc(OC)c(-c3ccc(F)c(Cl)c3)n2)ccc1OC1CC1 (stereo not drawn) [Compound 462] | < 1000 | 10000 to 100000 | < 1000 | < 1000 | 
COc1cc(C(=O)NCC(O)(c2cc(C(C)(C)N)cc(-c3ccc(F)cc3)n2)C(F)(F)F)ccc1OCC(N)=O (stereo not drawn) [Compound 580] |  | > 100000 | < 1000 | < 1000 | < 1000
COc1cc(C(=O)NCC(O)(c2cc(C(C)(C)NC(C)=O)cc(-c3ccc(F)cc3)n2)C(F)(F)F)ccc1OCCO (stereo not drawn) [Compound 611] | < 1000 | > 100000 | < 1000 | < 1000 | 
COc1cc(C(=O)NCC(O)(c2ccc(OC)c(-c3ccc(F)c(Cl)c3)n2)C2CC2)ccc1OCCO (stereo not drawn) [Compound 241] | < 1000 | 10000 to 100000 | < 1000 | < 1000 | 
CCNC(C)(C)c1cc(-c2ccc(F)c(Cl)c2)nc(C(O)(CNC(=O)c2ccc(OC[C@H](C)O)c(OC)c2)C(F)(F)F)c1 (stereo partly drawn) [Compound 391] | < 1000 | 10000 to 100000 | < 1000 | < 1000 | 
COc1cc(C(=O)NCC(O)(c2cc(CN)cc(-c3ccc(F)c(Cl)c3)n2)C(F)(F)F)ccc1OC[C@@H](C)O (stereo partly drawn) [Compound 357] | < 1000 | 10000 to 100000 | < 1000 | < 1000 | 
COc1cc(C(=O)NCC(O)(c2cc3c(c(-c4ccc(F)c(Cl)c4)n2)OCC3(C)C)C(F)(F)F)ccc1OCC(C)O (stereo not drawn) [Compound 211] | < 1000 | 10000 to 100000 | < 1000 | < 1000 | 
COc1cc(C(=O)NCC(=O)c2cc3c(c(-c4ccc(F)c(Cl)c4)n2)OCCC3)ccc1OCCF [Compound 303] | < 1000 | > 100000 | < 1000 | < 1000 | 
COc1cc(C(=O)NCC(O)(c2ccc(OC)c(-c3ccc(F)c(Cl)c3)n2)C(F)(F)F)ccc1OC1(C)CC1 (stereo not drawn) [Compound 249] | < 1000 | 10000 to 100000 | < 1000 | < 1000 | 
COc1cc(C(=O)NC[C@@](O)(c2cc3c(c(-c4ccc(F)cc4)n2)OCC3(N)CO)C(F)(F)F)ccc1OC1CC1 (stereo partly drawn) [Compound 653] | < 1000 | > 100000 | < 1000 | < 1000 | 
COc1cc(C(=O)NCC(O)(c2cc3c(c(-c4ccc(F)c(Cl)c4)n2)OCC3)C2CC2)ccc1OCCO (stereo not drawn) [Compound 310] |  | 10000 to 100000 | < 1000 | < 1000 | < 1000
COc1cc(C(=O)NCC(O)(c2ccc(OC)c(-c3ccc(F)c(Cl)c3)n2)C(F)(F)F)ccc1OC1CC(F)(F)C1 (stereo not drawn) [Compound 244] | < 1000 | > 100000 | < 1000 | < 1000 | 
